Measured values taken from patent publication US20130072430A1, “METHODS FOR TREATMENT OR PROPHYLAXIS OF KIDNEY OR LIVER DYSFUNCTION” (NPS PHARMACEUTICALS, INC., priority 2010, published 2013).

Tested on: Human patients with short bowel syndrome
Assay: Example 1: kidney diagnostic biomarkers (urea nitrogen, creatinine, GFR) in short bowel syndrome patients, every four weeks for 24 weeks
Assay type: in vivo
Parameters: CREATININE (RATE BLANKED) Change from Baseline, Median / GFR, Median / GFR Change from Baseline, Median / UREA NITROGEN, Median / UREA NITROGEN Change from Baseline, Median: unit not given here
Details: 0.05 mg/kg/day; for CREATININE (RATE BLANKED), Median: unit assumed
Protocol: Human patients with short bowel syndrome were divided into three groups: a control group (16 total individuals) to receive placebo, an experimental group (35 total individuals) to receive teduglutide at 0.05 mg/kg/day throughout the study, and an experimental group (32 total individuals) to receive teduglutide at 0.1 mg/kg/day throughout the study. Patients were treated by subcutaneous injection of placebo or the appropriate dose of teduglutide. As individuals with short bowel syndrome are likely to experience associated liver and kidney disease, known biomarkers of liver and kidney function were monitored every four weeks, for 24 weeks. The liver biomarkers tested included total bilirubin, ALT and AST and ALP. The kidney biomarkers tested included urea nitrogen, creatinine and GFR. Before administration of placebo or teduglutide, diagnostic biomarker levels were tested to establish a baseline for each individual.
To visualize the effect of GLP-2 on the levels of the diagnostic biomarkers, the average change from baseline was calculated for the placebo and teduglutide treated groups for each visit after a baseline was established. The average change from baseline of each group is depicted in FIGS. […]. The numerical figures for each diaanostic biomarker at each time point are depicted in Table 1.
The raw data for this sorting is reproduced in Table 2 below.

Compound: CC[C@H](C)[C@H](NC(=O)[C@H](Cc1ccccc1)NC(=O)[C@H](CC(=O)O)NC(=O)[C@H](CCCNC(=N)N)NC(=O)[C@H](C)NC(=O)[C@H](C)NC(=O)[C@H](CC(C)C)NC(=O)[C@H](CC(N)=O)NC(=O)[C@H](CC(=O)O)NC(=O)[C@H](CC(C)C)NC(=O)[C@@H](NC(=O)[C@@H](NC(=O)[C@H](CC(N)=O)NC(=O)[C@H](CCSC)NC(=O)[C@H](CCC(=O)O)NC(=O)[C@H](CC(=O)O)NC(=O)[C@H](CO)NC(=O)[C@H](Cc1ccccc1)NC(=O)[C@H](CO)NC(=O)CNC(=O)[C@H](CC(=O)O)NC(=O)CNC(=O)[C@@H](N)Cc1c[nH]cn1)[C@@H](C)O)[C@@H](C)CC)C(=O)N[C@@H](CC(N)=O)C(=O)N[C@@H](Cc1c[nH]c2ccccc12)C(=O)N[C@@H](CC(C)C)C(=O)N[C@H](C(=O)N[C@@H](CCC(N)=O)C(=O)N[C@H](C(=O)N[C@@H](CCCCN)C(=O)N[C@H](C(=O)N[C@H](C(=O)N[C@@H](CC(=O)O)C(=O)O)[C@@H](C)O)[C@@H](C)CC)[C@@H](C)O)[C@@H](C)CC [teduglutide]
- CREATININE (RATE BLANKED) Change from Baseline, Mean (SD) (DW4): 1.2 (12.01)
- CREATININE (RATE BLANKED) Change from Baseline, Median (DW4): 1.5
- CREATININE (RATE BLANKED), Mean (SD) (DW4): 84.8 (30.01)
- GFR Change from Baseline, Mean (SD) (DW4): −1.4 (12.80)
- GFR Change from Baseline, Median (DW4): −0.6
- GFR, Mean (SD) (DW4): 86.1 (36.99)
- GFR, Median (DW4): 77.0
- UREA NITROGEN Change from Baseline, Mean (SD) (DW4): −0.4 (2.16)
- UREA NITROGEN Change from Baseline, Median (DW4): −0.4
- UREA NITROGEN, Mean (SD) (DW4): 5.3 (2.09)
- UREA NITROGEN, Median (DW4): 4.9
- CREATININE (RATE BLANKED), Median (DW4): 80 µmol/L
- CREATININE (RATE BLANKED) Change from Baseline, Mean (SD) (DW8): −1.1 (15.51)
- CREATININE (RATE BLANKED) Change from Baseline, Median (DW8): 0.0
- CREATININE (RATE BLANKED), Mean (SD) (DW8): 81.9 (27.34)
- GFR Change from Baseline, Mean (SD) (DW8): −0.1 (19.13)
- GFR Change from Baseline, Median (DW8): 1.1
- GFR, Mean (SD) (DW8): 89.1 (39.16)
- GFR, Median (DW8): 81.6
- UREA NITROGEN Change from Baseline, Mean (SD) (DW8): −0.4 (2.02)
- UREA NITROGEN Change from Baseline, Median (DW8): −0.3
- UREA NITROGEN, Mean (SD) (DW8): 5.3 (1.58)
- UREA NITROGEN, Median (DW8): 5.2
- CREATININE (RATE BLANKED), Median (DW8): 71 µmol/L
- CREATININE (RATE BLANKED) Change from Baseline, Mean (SD) (DW12): 1.8 (16.71)
- CREATININE (RATE BLANKED) Change from Baseline, Median (DW12): 8.0
- CREATININE (RATE BLANKED), Mean (SD) (DW12): 86.8 (29.41)
- GFR Change from Baseline, Mean (SD) (DW12): −3.1 (12.18)
- GFR Change from Baseline, Median (DW12): −5.0
- GFR, Mean (SD) (DW12): 85.7 (39.48)
- GFR, Median (DW12): 76.5
- UREA NITROGEN Change from Baseline, Mean (SD) (DW12): −0.8 (1.86)
- UREA NITROGEN Change from Baseline, Median (DW12): −0.5
- UREA NITROGEN, Mean (SD) (DW12): 4.8 (1.69)
- UREA NITROGEN, Median (DW12): 4.4
- CREATININE (RATE BLANKED), Median (DW12): 80 µmol/L
- CREATININE (RATE BLANKED) Change from Baseline, Mean (SD) (DW16): −1.6 (13.06)
- CREATININE (RATE BLANKED) Change from Baseline, Median (DW16): 0.0
- CREATININE (RATE BLANKED), Mean (SD) (DW16): 82.1 (29.95)
- GFR Change from Baseline, Mean (SD) (DW16): 0.8 (12.08)
- GFR Change from Baseline, Median (DW16): 0.9
- GFR, Mean (SD) (DW16): 89.8 (38.02)
- GFR, Median (DW16): 84.1
- UREA NITROGEN Change from Baseline, Mean (SD) (DW16): −0.5 (2.13)
- UREA NITROGEN Change from Baseline, Median (DW16): −0.3
- UREA NITROGEN, Mean (SD) (DW16): 5.0 (1.73)
- UREA NITROGEN, Median (DW16): 4.4
- CREATININE (RATE BLANKED), Median (DW16): 79 µmol/L
- CREATININE (RATE BLANKED) Change from Baseline, Mean (SD) (DW20): 0.7 (13.11)
- CREATININE (RATE BLANKED) Change from Baseline, Median (DW20): 0.0
- CREATININE (RATE BLANKED), Mean (SD) (DW20): 85.6 (28.77)
- GFR Change from Baseline, Mean (SD) (DW20): −2.0 (16.60)
- GFR Change from Baseline, Median (DW20): 0.9
- GFR, Mean (SD) (DW20): 83.2 (32.77)
- GFR, Median (DW20): 74.0
- UREA NITROGEN Change from Baseline, Mean (SD) (DW20): −0.6 (1.94)
- UREA NITROGEN Change from Baseline, Median (DW20): −0.3
- UREA NITROGEN, Mean (SD) (DW20): 5.0 (1.80)
- UREA NITROGEN, Median (DW20): 5.2
- CREATININE (RATE BLANKED), Median (DW20): 77.5 µmol/L
- CREATININE (RATE BLANKED) Change from Baseline, Mean (SD) (DW24): −2.9 (14.03)
- CREATININE (RATE BLANKED) Change from Baseline, Median (DW24): −0.5
- CREATININE (RATE BLANKED), Mean (SD) (DW24): 82.8 (31.57)
